Results as given in publication PMC6713104, “New peptide derived antimalaria and antimicrobial agents bearing sulphonamide moiety” (Journal of Enzyme Inhibition and Medicinal Chemistry, 2019).
In brackets after ≈: the same amount, converted by molar mass. Where two headings read alike, the source gives them in different places. Non-standard residues stand in square brackets, D forms with d. Residues, ends and D or L forms follow the SMILES beside them. ξ: configuration not given here. *: point of attachment. Tos = Cc1ccc(S(=O)(=O)*)cc1; βNA = c1ccc2cc(N*)ccc2c1; NHPh = c1ccc(N*)cc1; ξA = CC(N)C(=O)O

Assays:
E. coli = experiment: Antimicrobial MIC, agar cup diffusion; assay type: cell-based; conditions: Escherichia coli, read-out: MIC (minimum inhibitory concentration)
S. typhi = experiment: Antimicrobial MIC, agar cup diffusion; assay type: cell-based; conditions: Salmonella enterica, read-out: MIC (minimum inhibitory concentration)
C. albicans = experiment: Antimicrobial MIC, agar cup diffusion; assay type: cell-based; conditions: Candida albicans, read-out: MIC (minimum inhibitory concentration)
A. niger = experiment: Antimicrobial MIC, agar cup diffusion; assay type: cell-based; conditions: Aspergillus niger, read-out: MIC (minimum inhibitory concentration)
P. falciparum strain W2 = experiment: In vitro antimalarial assay; assay type: cell-based; conditions: Plasmodium falciparum, W2; P. falciparum, 48 h, >99% of parasites inhibited from developing to schizonts
[1] = system: Plasmodium berghei infection in mice; experiment: In vivo antimalaria test; conditions: Plasmodium berghei, P. berghei infected mice, oral
Experimental: Experimental Design and Treatment of Mice. Methods of Peter et al.[30] and Kalra et al.[31] for antiplasmodial assay against Plasmodium berghei infection in mice with some modifications were employed. About eighty infected mice were randomly divided into five groups, each having […] mice. The inoculum was prepared from a donor mouse with rising parasitemia of 60.42%. After 7 days of infection, animals begin to receive treatment (100 and 200 mg/kg b wt.) of the synthesized compounds (7a–7n) for 12 days with constant check of the percentage of parasitemia after a 4-day interval. Artemisinin (100 and 200 mg/kg body weight.) was given to the other mice in group three as positive control, group four was not treated and group five was not infected. All the compounds and the drugs were given orally by using a standard intragastric tube. For all parasitemia determination, blood samples were collected from tail snip of each mouse and thin smears prepared and stained with 10% Giemsa solution. The uniform fields of each stained slide (for each mouse) were examined under microscope with an oil immersion objective of 100X magnification power and average percent of parasitemia was determined.
To determine the in vivo activity, the compounds were tested against P. berghei NK(65 Strain) infection mice., the animals were obtained from Nigeria institute for Trypanosoma and onchocercarioses Research (NTIR) Vom, Plateau State Nigeria. The permission and approval for the use of animals in this experiment were granted by the Animal Ethics Committee, Federal College of Vetrenary Medical Laboratory, Vom, Plateau State. Method of Peter et al.[30], for antiplasmodial assay against P. berghei in mice with some modification were employed. Artemisimin was used as treated control of the experiments. The percentage inhibition of parasite multiplication was calculated comparing the treated group with untreated group by means of the following formula[39] [(A − B)/A] × 100; where A = parasitaemia in the untreated group and B = parasitemia in the test group. […] Most of the compounds were active against P. berghei after 7 days post-infection by reducing the parasiteamia by at least 40% when in a dose of 100 mg/kg (Table 5). The inhibition of parasitaemia increased on 12th day post infection for almost all the compounds. […] However in consideration of the compounds ability to inhibit parasitaemia to the control drug. […] These compounds should be considered for further studies because of its promising activities.

B. subtilis = experiment: Antimicrobial MIC, agar cup diffusion; assay type: cell-based; conditions: for MIC: Bacillus subtilis, B. subtilis, read-out: MIC (minimum inhibitory concentration)
K. pneumoniae = experiment: Antimicrobial MIC, agar cup diffusion; assay type: cell-based; conditions: Klebsiella pneumoniae, read-out: MIC (minimum inhibitory concentration)
[2] = 168 h, read-out: % inhibition 7 days post-treatment (100 mg/kg), day 7
[3] = 168 h, read-out: % inhibition 7 days post-treatment (200 mg/kg), day 7
[4] = 288 h, read-out: % inhibition 12 days post-treatment (100 mg/kg), day 12
[5] = 288 h, read-out: % inhibition 12 days post-treatment (200 mg/kg), day 12

Compound | MIC (E. coli) [µg/mL] | MIC (S. typhi) [µg/mL] | MIC (C. albicans) [µg/mL] | MIC (A. niger) [µg/mL] | MIC (P. falciparum strain W2) [µM] | inhibition in vivo at 100 mg/kg [1, 2] [%] | inhibition in vivo at 200 mg/kg [1, 3] [%] | inhibition in vivo at 100 mg/kg [1, 4] [%] | inhibition in vivo at 200 mg/kg [1, 5] [%] | melting point [°C] | MIC (B. subtilis) [µg/mL] | activity against Bacillus compared with ciprofloxacin (B. subtilis; in words) | MIC (K. pneumoniae) [µg/mL]
Cc1ccc(S(=O)(=O)NC(C)C(=O)NCC(=O)Nc2ccc3ccccc3c2)cc1 (stereo not shown) [Compound 7n, 2–(4-methylphenylsulfonamido)-N-(2-(naphthalene-2-ylamino)-2-oxoethyl)propanamide] (Tos-[ξA]-Gly-βNA) | 123 (≈ 289 µM) | 617 (≈ 1450 µM) | 155 (≈ 364 µM) | 39 (≈ 91.7 µM) | 2.34 (≈ 0.996 µg/mL) | 47.8 | 63.8 | 49.1 | 71.7 | 174 to 176 | – | – | –
Cc1ccc(S(=O)(=O)NC(C)C(=O)NCC(=O)Nc2ccccc2)cc1 (stereo not shown) [Compound 7m, 2–(4-methylphenylsulfonamido)-N-(2-oxo-2-(phenylamino)ethyl)propanamide] (Tos-[ξA]-Gly-NHPh) | 123 (≈ 328 µM) | 57 (≈ 152 µM) | 7940 (≈ 21100 µM) | 56 (≈ 149 µM) | 1.87 (≈ 0.702 µg/mL) | 33.5 | 71.4 | 29.3 | 74 | – | 129 (≈ 344 µM) | greater activity against Bacillus than ciprofloxacin | 138 (≈ 368 µM)
C[C@@H]1CC[C@H]2[C@@H](C)C(=O)O[C@@H]3O[C@@]4(C)CC[C@@H]1[C@]32OO4 [Artemisinin, reference compound] | – | – | – | – | 0.72 (≈ 0.203 µg/mL) | 75.7 | 78.9 | 86.2 | 82.3 | – | – | – | –
Cc1ccc(S(=O)(=O)NC(C)C(=O)NCC(=O)Nc2ccc(F)cc2)cc1 (stereo not shown) [Compound 7k, N-(2-((4-fluorophenyl)amino)-2-oxoethyl)-2–(4-methylphenylsulfonamido)propanamide] | 316 (≈ 803 µM) | 3160 (≈ 8030 µM) | 63.1 (≈ 160 µM) | 316 (≈ 803 µM) | 0.53 (≈ 0.209 µg/mL) | 40.4 | 54.9 | 44.3 | 56.4 | – | 371 (≈ 943 µM) | – | 79 (≈ 201 µM)
CC(NS(=O)(=O)c1ccccc1)C(=O)NCC(=O)Nc1cccc(Cl)c1 (stereo not shown) [Compound 7a, N-(2-((3-chlorophenyl)amino)-2-oxoethyl)-2-(phenylsulfonamido)propanamide] | 489 (≈ 1240 µM) | 199 (≈ 503 µM) | 56.1 (≈ 142 µM) | 1580 (≈ 4000 µM) | 0.37 (≈ 0.146 µg/mL) | 36.2 | 52.1 | 50 | 61.4 | – | 219 (≈ 553 µM) | – | 251 (≈ 634 µM)
